Measured values published in the CheMixHub viscosity set.
“And” between values parts separate entries of the source, which are not always exact repeats. Identical values can stand only once.

Assay: xn = mol fraction of the nth substance listed

CCCCCCO + CCCCCCCC
viscosity [mPa·s]
Settings | 293.15 K | 298.15 K | 303.15 K | 308.15 K | 313.15 K
100 kPa, x2 = 0.0423 | 4.68 | 4.014 | 3.464 | 3.004 | 2.618
100 kPa, x2 = 0.0824 | 4.117 | 3.546 | 3.072 | 2.675 | 2.34
100 kPa, x2 = 0.1636 | 3.198 | 2.775 | 2.423 | 2.126 | 1.876
100 kPa, x2 = 0.2691 | 2.319 | 2.037 | 1.8 | 1.599 | 1.426
100 kPa, x2 = 0.3407 | 1.877 | 1.663 | 1.482 | 1.327 | 1.193
100 kPa, x2 = 0.3897 | 1.634 | 1.457 | 1.306 | 1.176 | 1.064
100 kPa, x2 = 0.4731 | 1.303 | 1.176 | 1.065 | 0.969 | 0.884
100 kPa, x2 = 0.5241 | 1.148 | 1.043 | 0.95 | 0.869 | 0.797
100 kPa, x2 = 0.5779 | 1.011 | 0.925 | 0.848 | 0.779 | 0.718
100 kPa, x2 = 0.6611 | 0.851 | 0.785 | 0.725 | 0.671 | 0.622
100 kPa, x2 = 0.753 | 0.719 | 0.667 | 0.62 | 0.577 | 0.537
100 kPa, x2 = 0.8903 | 0.582 | 0.543 | 0.508 | 0.475 | 0.445
100 kPa, x2 = 0.9572 | 0.533 | 0.502 | 0.468 | 0.438 | 0.411
100 kPa, x2 = 0.9715 | 0.524 | 0.491 | 0.461 | 0.432 | 0.406
101.33 kPa, x2 = 0.051 | – | 4.054 | – | – | –
101.33 kPa, x2 = 0.1118 | – | 3.29 | – | – | –
101.33 kPa, x2 = 0.1835 | – | 2.593 | – | – | –
101.33 kPa, x2 = 0.3569 | – | 1.552 | – | – | –
101.33 kPa, x2 = 0.5094 | – | 1.074 | – | – | –
101.33 kPa, x2 = 0.5642 | – | 0.955 | – | – | –
101.33 kPa, x2 = 0.6167 | – | 0.857 | – | – | –
101.33 kPa, x2 = 0.6701 | – | 0.77 | – | – | –
101.33 kPa, x2 = 0.7288 | – | 0.686 | – | – | –
101.33 kPa, x2 = 0.8387 | – | 0.566 | – | – | –
101.33 kPa, x2 = 0.937 | – | 0.511 | – | – | –

O=C1CCCCC1 + CCC(C)O
298.15 K, 101 kPa
Settings | viscosity [mPa·s]
x1 = 0.1006 | 2.33
x1 = 0.209 | 1.9
x1 = 0.3005 | 1.66
x1 = 0.403 | 1.55
x1 = 0.4997 | 1.51
x1 = 0.6988 | 1.57
x1 = 0.8007 | 1.66
x1 = 0.8986 | 1.79

CCCCCCCCCCCCCC[P+](CCCCCC)(CCCCCC)CCCCCC.c1nnc[n-]1 + O=C=O
Settings | viscosity [mPa·s]
298.15 K, 100 kPa, x2 = 0.5 | 638

CCOCC + c1ccccc1
Settings | viscosity
293.15 K, 101 kPa, x2 = 0.24 | 0.3 mPa·s
293.15 K, 101 kPa, x2 = 0.49 | 0.381 mPa·s
293.15 K, 101 kPa, x2 = 0.74 | 0.482 mPa·s
293.15 K, 101.33 kPa, x1 = 0.2 | 0.504 mPa·s and 0.504 mPa·s
293.15 K, 101.33 kPa, x1 = 0.4 | 0.407 mPa·s
293.15 K, 101.33 kPa, x1 = 0.5 | 0.371 mPa·s and 0.371 mPa·s
293.15 K, 101.33 kPa, x1 = 0.6 | 0.339 mPa·s
293.15 K, 101.33 kPa, x1 = 0.8 | 0.289 mPa·s
298.15 K, 101 kPa, x1 = 0.2529 | 0.438 mPa·s
298.15 K, 101 kPa, x1 = 0.4438 | 0.362 mPa·s
298.15 K, 101 kPa, x1 = 0.7248 | 0.282 mPa·s
298.15 K, 101 kPa, x2 = 0.24 | 0.288 mPa·s
298.15 K, 101 kPa, x2 = 0.275 | 0.282 mPa·s
298.15 K, 101 kPa, x2 = 0.49 | 0.366 mPa·s
298.15 K, 101 kPa, x2 = 0.5563 | 0.362 mPa·s
298.15 K, 101 kPa, x2 = 0.74 | 0.455 mPa·s
298.15 K, 101 kPa, x2 = 0.7471 | 0.438 mPa·s
303.15 K, 101 kPa, x2 = 0.24 | 0.278 mPa·s
303.15 K, 101 kPa, x2 = 0.49 | 0.346 mPa·s
303.15 K, 101 kPa, x2 = 0.74 | 0.43 mPa·s
308.15 K, 101 kPa, x2 = 0.49 | 0.322 mPa·s
308.15 K, 101 kPa, x2 = 0.74 | 0.408 mPa·s

O=C1CCCCC1 + C1CCCCC1
Settings | viscosity [mPa·s]
298.15 K, 101.3 kPa, x2 = 0.4895 | 1.275
303.15 K, 101 kPa, x2 = 0.1065 | 1.596
303.15 K, 101 kPa, x2 = 0.2078 | 1.451
303.15 K, 101 kPa, x2 = 0.3013 | 1.32
303.15 K, 101 kPa, x2 = 0.3971 | 1.214
303.15 K, 101 kPa, x2 = 0.5022 | 1.102
303.15 K, 101 kPa, x2 = 0.604 | 1.027
303.15 K, 101 kPa, x2 = 0.7024 | 0.9614
303.15 K, 101 kPa, x2 = 0.8086 | 0.8788
303.15 K, 101 kPa, x2 = 0.8742 | 0.8504
303.15 K, 101 kPa, x2 = 0.9034 | 0.8387

C=C(C)[C@@H]1CC=C(C)CC1 + CC12CCC(CC1)C(C)(C)O2
viscosity [mPa·s], 101.33 kPa
Settings | 298.15 K | 313.15 K
x1 = 0.0715 | 2.345 | 1.741
x1 = 0.1121 | 2.23 | 1.664
x1 = 0.2018 | 1.995 | 1.504
x1 = 0.327 | 1.704 | 1.305
x1 = 0.4614 | 1.439 | 1.123
x1 = 0.5584 | 1.279 | 1.011
x1 = 0.6401 | 1.162 | 0.929
x1 = 0.7336 | 1.05 | 0.851
x1 = 0.8226 | 0.963 | 0.785
x1 = 0.8648 | 0.928 | 0.759
x1 = 0.9499 | 0.872 | 0.716

CCCCCCO + CN1CCCC1=O
viscosity [mPa·s], 100 kPa
Settings | x1 = 0.1042 | x1 = 0.2 | x1 = 0.302 | x1 = 0.3995 | x1 = 0.4998 | x1 = 0.5996 | x1 = 0.6992 | x1 = 0.7985 | x1 = 0.8981 | x1 = 0.9469
293.15 K | 1.95 | 2.073 | 2.222 | 2.385 | 2.581 | 2.824 | 3.148 | 3.595 | 4.278 | 4.729
298.15 K | 1.786 | 1.894 | 2.02 | 2.157 | 2.321 | 2.521 | 2.791 | 3.158 | 3.711 | 4.048
303.15 K | 1.645 | 1.739 | 1.845 | 1.961 | 2.099 | 2.266 | 2.49 | 2.791 | 3.24 | 3.53
308.15 K | 1.522 | 1.603 | 1.693 | 1.791 | 1.907 | 2.046 | 2.233 | 2.481 | 2.844 | 3.083
313.15 K | 1.412 | 1.483 | 1.56 | 1.643 | 1.741 | 1.857 | 2.012 | 2.217 | 2.51 | 2.708
318.15 K | 1.315 | 1.377 | 1.442 | 1.513 | 1.595 | 1.692 | 1.822 | 1.991 | 2.226 | 2.387

CC=Cc1ccc2c(c1)OCO2 + CCCCCOC(C)=O
Settings | viscosity [mPa·s]
298.15 K, 101 kPa, x1 = 0.137 | 0.958

O=C1CCCCC1 + CC(=O)N(C)C
viscosity [mPa·s], 101 kPa
Settings | 298.15 K | 308.15 K | 318.15 K
x1 = 0.1 | 1.024 | 0.873 | 0.75
x1 = 0.2001 | 1.095 | 0.907 | 0.76
x1 = 0.3001 | 1.182 | 0.956 | 0.782
x1 = 0.4001 | 1.28 | 1.018 | 0.823
x1 = 0.45 | 1.334 | 1.058 | 0.849
x1 = 0.4999 | 1.391 | 1.099 | 0.882
x1 = 0.5501 | 1.454 | 1.147 | 0.922
x1 = 0.5991 | 1.518 | 1.196 | 0.962
x1 = 0.7015 | 1.66 | 1.322 | 1.071
x1 = 0.7499 | 1.731 | 1.387 | 1.134
x1 = 0.7984 | 1.805 | 1.454 | 1.199
x1 = 0.8997 | 1.969 | 1.615 | 1.348
